Data as given in patent publication US6949544B2, “Inhibitors of c-Jun N-terminal kinases (JNK) and other protein kinases” (Vertex Pharmaceuticals Incorporated, priority 2001, dated 2005).

What was measured:
[1] = target: CDK-2/Cyclin A (Homo sapiens, UniProt P24941); assay: CDK2 inhibition assay (standard coupled enzyme assay); assay type: biochemical; conditions: 25 nM CDK-2/Cyclin A; read-out: CDK2 Inhibitory Activity (Ki rating A-C)
Method: Compounds were screened in the following manner for their ability to inhibit CDK2 using a standard coupled enzyme assay (Fox et al (1998) Protein Sci 7, 2249).
To an assay stock buffer solution containing 0.1M HEPES 7.5, 10 mM MgCl2, 1 mM DTT, 25 mM NaCl, 2.5 mM phosphoenolpyruvate, […], […], […], […], and 100 μM peptide ([…], American Peptide, Sunnyvale, Calif.) was added a DMSO solution of a compound of the present invention to a final concentration of 30 μM. The resulting mixture was incubated at 30° C. for 10 minutes.
The reaction was initiated by the addition of 10 μL of CDK-2/Cyclin A stock solution to give a final concentration of 25 nM in the assay. The rates of reaction were obtained by monitoring absorbance at 340 nm over a 5-minute read time at 30° C. using a BioRad Ultramark plate reader (Hercules, Calif.). The Ki values were determined from the rate data as a function of inhibitor concentration.

[2] = target: T1, activated JNK3 (Homo sapiens, UniProt P53779); assay: JNK inhibition assay (spectrophotometric coupled-enzyme assay); assay type: biochemical; conditions: 10 nM activated JNK3, 10 μM ATP; read-out: Activity in the JNK3 Inhibition Assay (Ki rating A-C)
T1 construct: One such construct encodes amino acid residues Ser40-Glu402 of JNK3α1 and is preceded by Met and Gly residues; Met-Gly (initiator methionine and added glycine) (N); made in house; host or cells: E. coli BL21 (DE3)
From the text: A BLAST search of the EST database using the published JNK3α1 cDNA as a query identified an EST clone (#632588) that contained the entire coding sequence for human JNK3α1. Polymerase chain reactions (PCR) using pfu polymerase (Strategene) were used to introduce restriction sites into the cDNA for cloning into the pET-15B expression vector at the NcoI and BamHI sites. The protein was expressed in E. coli. […] This truncation corresponds to Ser 2 of JNK1 and JNK2 proteins, and is preceded by a methionine (initiation) and a glycine residue. The glycine residue was added in order to introduce an NcoI site for cloning into the expression vector. In addition, systematic C-terminal truncations were performed by PCR to identify a construct that give rise to diffraction-quality crystals.
5 mg of JNK3 was diluted to 0.5 mg/ml in 50 mM HEPES buffer, pH 7.5, containing 100 mM NaCl, 5 mM DTT, 20 mM MgCl2 and 1 mM ATP. GST-MKK7(DD) was added at a molar ratio of 1:2.5 GST-MKK7:JNK3. After incubation for 30 minutes at 25° C., the reaction mixture was concentrated 5-fold by ultrafiltration in a Centriprep-30 (Amicon, Beverly, Mass.), diluted to 10 ml and an additional 1 mM ATP added. This procedure was repeated three times to remove ADP and replenish ATP. The final addition of ATP was 5 mM and the mixture incubated overnight at 4° C.
The activated JNK3/GST-MKK7(DD) reaction mixture was exchanged into 50 mM HEPES buffer, pH 7.5, containing 5 mM DTT and 5% glycerol (w/v) by dialysis or ultrafiltration. The reaction mixture was adjusted to 1.1 M potassium phosphate, pH 7.5, and purified by hydrophobic interaction chromatography (at 25° C.) using a Rainin Hydropore column. […] Activated JNK3 (i.e. doubly phosphorylated JNK3) was stored at −70° C. at 0.25-1 mg/ml.
Compounds were assayed for the inhibition of JNK3 by a spectrophotometric coupled-enzyme assay. In this assay, a fixed concentration of activated JNK3 (10 nM) was incubated with various concentrations of a potential inhibitor dissolved in DMSO for 10 minutes at 30° C. in a buffer containing 0.1 M HEPES buffer, pH 7.5, containing 10 mM MgCl2, 2.5 mM phosphoenolpyruvate, 200 μM NADH, 150 μg/mL pyruvate kinase, 50 μg/mL lactate dehydrogenase, and 200 μM EGF receptor peptide. […] The reaction was initiated by the addition of 10 μM ATP and the assay plate is inserted into the spectrophotometer's assay plate compartment that was maintained at 30° C. The decrease of absorbance at 340 nm was monitored as a function of time. The rate data as a function of inhibitor concentration was fitted to competitive inhibition kinetic model to determine the Ki.

T1 sequence (P53779 40-402): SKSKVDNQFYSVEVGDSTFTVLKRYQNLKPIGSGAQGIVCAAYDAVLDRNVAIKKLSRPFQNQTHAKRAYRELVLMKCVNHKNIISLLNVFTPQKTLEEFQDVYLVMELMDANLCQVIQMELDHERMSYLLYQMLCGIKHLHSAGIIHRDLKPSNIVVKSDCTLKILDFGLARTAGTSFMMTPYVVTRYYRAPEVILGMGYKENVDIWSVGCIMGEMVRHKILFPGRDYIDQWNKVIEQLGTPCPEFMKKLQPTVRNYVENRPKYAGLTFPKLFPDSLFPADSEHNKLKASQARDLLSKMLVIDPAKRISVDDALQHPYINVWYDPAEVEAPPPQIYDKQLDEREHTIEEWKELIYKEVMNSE

| Ki [1] [nM] | Ki [2] [nM] | Compound |
| --- | --- | --- |
| > 5000 | 100 to 1000 | COc1cc(-c2ccnc(Nc3c(F)cccc3F)n2)cc(OC)c1OC [Compound I-2] |
| > 5000 | 100 to 1000 | COc1cc(-c2ccnc(Nc3ccccc3C)n2)cc(OC)c1OC [Compound I-7] |
| > 5000 | > 1000 | COc1cc(-c2ccnc(Nc3c(C)cccc3C)n2)cc(OC)c1OC [Compound I-8] |
| > 5000 | < 100 | COc1cc(-c2ccnc(Nc3ccc([N+](=O)[O-])cc3)n2)cc(OC)c1OC [Compound I-11] |
|  | > 1000 | COc1cc(-c2ccnc(Nc3ccc(F)cc3)n2)cc(OC)c1OC [Compound I-14] |
| > 5000 | < 100 | COc1cc(-c2ccnc(Nc3ccccc3)n2)cc(OC)c1OC [Compound I-15] |
| > 5000 | < 100 | COc1cc(-c2ccnc(Nc3ccccc3C)n2)cc(OC)c1OC [Compound I-16] |
|  | < 100 | COc1cc(-c2ccnc(Nc3ccc(C)cc3)n2)cc(OC)c1OC [Compound I-17] |
| > 5000 | < 100 | COc1cc(-c2ccnc(Nc3cccc(C(F)(F)F)c3)n2)cc(OC)c1OC [Compound I-19] |
|  | < 100 | COc1ccc(Nc2nccc(-c3cc(OC)c(OC)c(OC)c3)n2)cc1 [Compound I-21] |
| > 5000 | < 100 | COc1cc(-c2ccnc(Nc3cc(Cl)cc(Cl)c3)n2)cc(OC)c1OC [Compound I-23] |
| > 5000 | 100 to 1000 | COc1cc(-c2ccnc(Nc3cc(C)cc(C)c3)n2)cc(OC)c1OC [Compound I-24] |
|  | < 100 | COc1cc(-c2ccnc(Nc3ccc(C)c(C)c3)n2)cc(OC)c1OC [Compound I-25] |
| > 5000 | 100 to 1000 | COc1cc(-c2ccnc(Nc3ccccc3)n2)cc2c1OCO2 [Compound I-26, [4-(7-Methoxy-benzo[1,3]dioxol-5-yl)-pyrimidin-2-yl]-phenyl-amine] |
|  | > 1000 | COc1cc(-c2ccnc(Nc3cccc(C)c3)n2)cc2c1OCO2 [Compound I-27] |
|  | 100 to 1000 | COc1cc(-c2ccnc(Nc3ccc(C)cc3)n2)cc2c1OCO2 [Compound I-28] |

| Ki [1] [nM] | Ki [2] [nM] | Compound |
| --- | --- | --- |
|  | 100 to 1000 | COc1cc(-c2ccnc(Nc3cccc(F)c3)n2)cc2c1OCO2 [Compound I-29] |
|  | > 1000 | COc1cc(-c2ccnc(Nc3cccc(Cl)c3)n2)cc2c1OCO2 [Compound I-30] |
|  | > 1000 | COc1cc(-c2ccnc(Nc3cccc(C(F)(F)F)c3)n2)cc2c1OCO2 [Compound I-31] |
| > 5000 | 100 to 1000 | COc1cccc(Nc2nccc(-c3cc(OC)c4c(c3)OCO4)n2)c1 [Compound I-32] |
| > 5000 | 100 to 1000 | COc1ccc(Nc2nccc(-c3cc(OC)c4c(c3)OCO4)n2)cc1 [Compound I-33] |
| > 5000 | < 100 | COc1cc(-c2ccnc(Nc3cccc([N+](=O)[O-])c3)n2)cc(OC)c1OC [Compound I-36] |
| > 5000 | < 100 | CCOc1c(OC)cc(-c2ccnc(Nc3cccc(Cl)c3)n2)cc1OC [Compound I-40] |
|  | < 100 | COc1c(C)cc(-c2ccnc(Nc3cccc(F)c3)n2)cc1C [Compound I-47] |
|  | > 1000 | CCc1nnc(Nc2nccc(-c3cc(OC)c(OC)c(OC)c3)n2)s1 [Compound I-84] |
|  | 100 to 1000 | COc1cc(-c2ccnc(Nc3cccc(Cl)c3)c2)cc(OC)c1OC [Compound I-146, (3-Chlorophenyl)-[4-(3,4,5-trimethoxyphenyl)-pyridin-2-yl]-amine] |
|  | 100 to 1000 | COc1cc(-c2ccnc(Nc3ccccc3Cl)c2)cc(OC)c1OC [Compound I-147] |
|  | 100 to 1000 | COc1cc(-c2ccnc(Nc3c(F)cccc3F)c2)cc(OC)c1OC [Compound I-151] |
|  | 100 to 1000 | COc1cc(-c2ccnc(Nc3cccc(F)c3)c2)cc(OC)c1OC [Compound I-154] |
|  | 100 to 1000 | COc1cc(-c2ccnc(Nc3ccccc3)c2)cc(OC)c1OC [Compound I-155] |
| > 5000 |  | COc1ccc(-c2ccnc(Nc3n[nH]c4ccccc34)n2)c(OC)c1OC [II-56] |
